Measurements from PubChem BioAssay AID1963448 (Molecular Pharmacology Branch, DTP, NCI, 2024).

System: 616215-338-R-J1-PDC complex spheroid growth, % test/control
Assay: Anticancer human tumor 616215-338-R-J1-PDC patient-derived colon adenocarcinoma cell line growth inhibition [Asc]
Conditions: for IC50: curve of first compound; for viability, T/C: stronger effect = lower value
Experimental: Multicellular complex tumor spheroid response to apoptosis pathway targeting inhibitors Alrizomadlin, Pelcitoclax, and Dasminapant in combination with a variety of drugs and investigational agents in selected tumor cell lines
The MDM2 inhibitor alrizomadlin, the Bcl-2/Bcl-xL inhibitor pelcitoclax, and the IAPs inhibitor dasminapant were evaluated both individually and in combination with standard of care and investigational anticancer small molecules within a complex spheroid model of solid tumors. . Complex spheroids include a stromal component modeled by human endothelial cells (HUVEC) and fibroblasts modeled by human mesenchymal stem cells (MSCs). The concentration ranges selected for each drug and investigational agent were based upon clinically achievable concentrations if the clinical Cmax of the agent was known.
Compounds. The drugs and investigational agents: alrizomadlin (APG-115; NSC831270), pelcitoclax (APG-1252; NSC835773), dasminapant (APG-1387;NSC834197), TAK-243 (NSC785004), copanlisib (NSC809693), olaparib (NSC753686), talazoparib (NSC767125), cobimetinib (NSC 768068), eltanexor (KPT-8602, NSC 794443), abemaciclib (NSC 768073), sotorasib (NSC818433), adagrasib (NSC 831453), MRTX-1133 (NSC 836407), Iadademestat (ORY1001, NSC 806812), and RMC-4630 (NSC839698), were obtained from the NCI Developmental Therapeutics Program Chemical Repository. The FDA-approved anticancer drug set is available from the Developmental Therapeutics Program at https://dtp.cancer.gov/organization/dscb/obtaining/available plates.htm. […] The stock solutions were prepared in dimethyl sulfoxide (DMSO, Sigma-Aldrich, St. Louis, MO, cat. D2650) at 800-fold the tested concentration and stored at -70 degrees C prior to their use. All drugs and investigational agents were tested over a range starting from a high concentration at or near the clinical Cmax and decreasing in half-log increments. If the clinical Cmax for an agent had not been determined, the highest concentration tested was 10 microM.
The patient-derived cancer (PDC) cell lines include five colon adenocarcinomas: 186277-243-T-J2-PDC, 616215-338-R-J1-PDC, 439559-082-T-J2-PDC, 463943-066-T-J2-PDC, and 519858-162-T-J1-PDC; three pancreatic carcinomas: 323965-272-R-J2-PDC, 521955-158-R6-J3-PDC, and 521955-158-R2-J5-PDC; two uterine sarcomas: 327498-152-R-J2-PDC and 993429-296-R-J1-PDC; two rhabdomyosarcomas: 755483-174-R-J1-PDC and 772245-204-R-J1-PDC; two soft tissue sarcomas: 126254-015-R-J1-PDC and 494315-158-R-J1-PDC; two malignant fibrous histiocytomas: 317291-083-R-J1-PDC and 596521-263-R-J1-PDC; two breast carcinomas: 171881-019-R-J1-PDC and 885512-296-R-J2-PDC; and one ovarian carcinoma: 6556581-035-R-J-PDC were obtained from the NCI PDMR, (https://pdmr.cancer.gov). The established cell lines HSSY-2 synovial sarcoma (RRID:CVCL 8719), SYO-1 synovial sarcoma (RRID:CVCL_7146), MPNST malignant peripheral neural sheath tumor were obtained from the Sloan Kettering Institute. The following established cell lines were purchased from the American Type Culture Collection (ATCC, Manassas, VA), Sor the received from the NCI repository:, PANC-1 pancreatic carcinoma (CRL-1469, RRID:CVCL_0480), OVCAR-5 ovarian carcinoma (RRID:CVCL_1628), OVCAR-8 ovarian carcinoma (RRID:CVCL_1629), , MCF-7 breast carcinoma (CRL-12584, RRID:CVCL_0031), MDA-MB-231 breast carcinoma (CRL-12532, RRID:CVCL_0062), NCI-H1876 small cell lung carcinoma (CRL-5902, RRID:CVCL_1503), NCI-H510A small cell lung carcinoma (HTB-184, RRID:CVCL_1565), NCI-H1417 (CRL-5869, RRID:CVCL_1469), and NCI-H196 small cell lung carcinoma (CRL-5823, RRID:CVCL_1509). Dr. Peter Houghton (Greehey Children's Cancer Research Institute, University of Texas Health Science Center, San Antonio, TX) provided Rh-18 rhabdomyosarcoma (RRID:CVCL_1659). Pooled donor human umbilical vein endothelial cells (HUVEC, Lonza, cat. CC-2519) and human mesenchymal stem cells (hMSC, Lonza, cat. PT-2501) were purchased from Lonza (Walkersville, MD).
Cell Culture. […]
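Further: spheroids exposed to agents for seven days before readout.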
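Wherever viability, T/C is given: 100% = DMSO vehicle control viability.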

NC(=O)C(=Cn1cnc(-c2cc(C(F)(F)F)cc(C(F)(F)F)c2)n1)c1cncnc1 + CNC(C)C(=O)NC1CN(S(=O)(=O)c2cccc(S(=O)(=O)N3CCC4CCC(C(=O)NC(c5ccccc5)c5ccccc5)N4C(=O)C(NC(=O)C(C)NC)C3)c2)CCC2CCC(C(=O)NC(c3ccccc3)c3ccccc3)N2C1=O
IC50 (second compound 0.00316 µM): > 300 nM
IC50 (second compound 0.01 µM): > 300 nM
IC50 (second compound 0.0316 µM): > 300 nM
IC50 (second compound 0.1 µM): > 300 nM
IC50 (second compound 0.316 µM): > 300 nM
IC50 (second compound 1 µM): 191 nM
viability, T/C (second compound 0.00316 µM, first compound 0.000949 µM): 104%
viability, T/C (second compound 0.00316 µM, first compound 0.003 µM): 105%
viability, T/C (second compound 0.00316 µM, first compound 0.00949 µM): 94.3%
viability, T/C (second compound 0.00316 µM, first compound 0.03 µM): 83.3%
viability, T/C (second compound 0.00316 µM, first compound 0.0949 µM): 73.9%
viability, T/C (second compound 0.00316 µM, first compound 0.3 µM): 53.2%
viability, T/C (second compound 0.01 µM, first compound 0.000949 µM): 107%
viability, T/C (second compound 0.01 µM, first compound 0.003 µM): 108%
viability, T/C (second compound 0.01 µM, first compound 0.00949 µM): 96.2%
viability, T/C (second compound 0.01 µM, first compound 0.03 µM): 72%
viability, T/C (second compound 0.01 µM, first compound 0.0949 µM): 76.2%
viability, T/C (second compound 0.01 µM, first compound 0.3 µM): 71.4%
viability, T/C (second compound 0.0316 µM, first compound 0.000949 µM): 115%
viability, T/C (second compound 0.0316 µM, first compound 0.003 µM): 108%
viability, T/C (second compound 0.0316 µM, first compound 0.00949 µM): 95.8%
viability, T/C (second compound 0.0316 µM, first compound 0.03 µM): 64.6%
viability, T/C (second compound 0.0316 µM, first compound 0.0949 µM): 78.4%
viability, T/C (second compound 0.0316 µM, first compound 0.3 µM): 54.7%
viability, T/C (second compound 0.1 µM, first compound 0.000949 µM): 117%
viability, T/C (second compound 0.1 µM, first compound 0.003 µM): 110%
viability, T/C (second compound 0.1 µM, first compound 0.00949 µM): 102%
viability, T/C (second compound 0.1 µM, first compound 0.03 µM): 68.5%
viability, T/C (second compound 0.1 µM, first compound 0.0949 µM): 70.5%
viability, T/C (second compound 0.1 µM, first compound 0.3 µM): 68.5%
viability, T/C (second compound 0.316 µM, first compound 0.000949 µM): 118%
viability, T/C (second compound 0.316 µM, first compound 0.003 µM): 118%
viability, T/C (second compound 0.316 µM, first compound 0.00949 µM): 105%
viability, T/C (second compound 0.316 µM, first compound 0.03 µM): 61.1%
viability, T/C (second compound 0.316 µM, first compound 0.0949 µM): 60.9%
viability, T/C (second compound 0.316 µM, first compound 0.3 µM): 67%
viability, T/C (second compound 1 µM, first compound 0.000949 µM): 112%
viability, T/C (second compound 1 µM, first compound 0.003 µM): 110%
viability, T/C (second compound 1 µM, first compound 0.00949 µM): 71.1%
viability, T/C (second compound 1 µM, first compound 0.03 µM): 88.2%
viability, T/C (second compound 1 µM, first compound 0.0949 µM): 59%
viability, T/C (second compound 1 µM, first compound 0.3 µM): 41.5%
